Several values for one entry are separate records, joined by “and”; a condition that tells them apart may be missing. Identical values can stand only once. Toxic doses and inconclusive results are not listed.

The subject of the assay is CD2F1 mice, L1210 leukemia ip, survival T/C. Kind of assay: NCI In Vivo Anticancer Drug Screen. Data for tumor model L1210 Leukemia (intraperitoneal) in CD2F1 (CDF1) mice. Conditions: higher = longer survival. The essentials: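 In this screen, transplantable tumors were grown in mice given either the compound or its vehicle. Results were expressed as the treated measurement relative to the control measurement.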

The mark [1] stands for this setting: endpoint: mean survival time, dose: 100.0 mg/kg/injection, schedule: Q04DX003 (ip), vehicle: saline with Tween-80.
[2] abbreviates: endpoint: mean survival time, dose: 200.0 mg/kg/injection, schedule: Q04DX003 (ip), vehicle: saline with Tween-80.
The mark [3] stands for this setting: endpoint: mean survival time, dose: 100.0 mg/kg/injection, schedule: Q01DX001 (ip), vehicle: saline.

On to `N#Cc1nccnc1Cl`, for which the T/C was 96 % of control under setting [1] and 86 % of control under setting [2].

Regarding `O=C(Nc1cc(Cl)cc(Cl)c1)C(F)(F)F`, the T/C under setting [3] was 107 % of control; the T/C (endpoint: mean survival time, dose: 200.0 mg/kg/injection, schedule: Q01DX001 (ip), vehicle: saline) is 101 % of control; the T/C (endpoint: mean survival time, dose: 400.0 mg/kg/injection, schedule: Q01DX001 (ip), vehicle: saline) is 101 % of control.

Consider `Nc1ccc(N(c2ccccc2)c2ccccc2)cc1`, for which the T/C reads like this: (endpoint: mean survival time, dose: 100.0 mg/kg/injection, schedule: Q04DX002 (ip), vehicle: Klucel (hydroxypropylcellulose) (HPC)) 97 % of control; (endpoint: mean survival time, dose: 200.0 mg/kg/injection, schedule: Q04DX002 (ip), vehicle: Klucel (hydroxypropylcellulose) (HPC)) 86 % of control; (endpoint: mean survival time, dose: 400.0 mg/kg/injection, schedule: Q04DX002 (ip), vehicle: Klucel (hydroxypropylcellulose) (HPC)) 89 % of control.

Consider `N=[N+]=CC(=O)CCC(NC(=O)C(CCC(=O)C=[N+]=N)NC(=O)CCC(N)C(=O)O)C(=O)O` (centres undefined), for which the T/C is 95 % of control (endpoint: mean survival time, dose: 0.01 mg/kg/injection, schedule: Q01DX009 (ip), vehicle: water); 96 % of control (endpoint: mean survival time, dose: 0.03 mg/kg/injection, schedule: Q01DX009 (ip), vehicle: water); 115 % of control and 112 % of control (endpoint: mean survival time, dose: 0.05 mg/kg/injection, schedule: Q01DX009 (ip), vehicle: other); 115 % of control (endpoint: mean survival time, dose: 0.05 mg/kg/injection, schedule: Q01DX009 (ip), vehicle: water); 103 % of control (endpoint: mean survival time, dose: 0.05 mg/kg/injection, schedule: Q01DX009 (oral), vehicle: water); 116 % of control (endpoint: mean survival time, dose: 0.05 mg/kg/injection, schedule: Q01DX009 (sc), vehicle: water). Further, the T/C is, setting by setting: (endpoint: mean survival time, dose: 0.1 mg/kg/injection, schedule: Q01DX009 (ip), vehicle: other) 152 % of control; (endpoint: mean survival time, dose: 0.1 mg/kg/injection, schedule: Q01DX009 (oral), vehicle: water) 107 % of control; (endpoint: mean survival time, dose: 0.18 mg/kg/injection, schedule: Q01DX017 (ip), vehicle: saline) 157 % of control; (endpoint: mean survival time, dose: 0.2 mg/kg/injection, schedule: Q01DX009 (oral), vehicle: water) 120 % of control; (endpoint: mean survival time, dose: 0.2 mg/kg/injection, schedule: Q01DX009 (sc), vehicle: water) 101 % of control; (endpoint: mean survival time, dose: 0.3 mg/kg/injection, schedule: Q01DX017 (ip), vehicle: saline) 111 % of control. Also, the T/C reads like this: (endpoint: mean survival time, dose: 0.4 mg/kg/injection, schedule: Q01DX009 (oral), vehicle: water) 90 % of control; (endpoint: mean survival time, dose: 0.4 mg/kg/injection, schedule: Q01DX009 (sc), vehicle: water) 98 % of control; (endpoint: mean survival time, dose: 0.5 mg/kg/injection, schedule: Q01DX009 (ip), vehicle: other) 116 % of control and 96 % of control and 97 % of control; (endpoint: mean survival time, dose: 0.5 mg/kg/injection, schedule: Q01DX017 (ip), vehicle: saline) 112 % of control; (endpoint: mean survival time, dose: 1.0 mg/kg/injection, schedule: Q01DX009 (ip), vehicle: other) 87 % of control; (endpoint: mean survival time, dose: 1.6 mg/kg/injection, schedule: Q03HX024 (ip), vehicle: water) 100 % of control. For the same compound, the T/C runs as follows: (endpoint: mean survival time, dose: 3.1 mg/kg/injection, schedule: Q03HX008 (ip), vehicle: water) 110 % of control; (endpoint: mean survival time, dose: 3.1 mg/kg/injection, schedule: Q03HX024 (ip), vehicle: water) 87 % of control; (endpoint: mean survival time, dose: 6.25 mg/kg/injection, schedule: Q04DX003 (ip), vehicle: water) 155 % of control; (endpoint: mean survival time, dose: 7.5 mg/kg/injection, schedule: Q04DX003 (ip), vehicle: other) 162 % of control and 165 % of control and 168 % of control; (endpoint: mean survival time, dose: 12.5 mg/kg/injection, schedule: Q04DX003 (ip), vehicle: water) 160 % of control; (endpoint: mean survival time, dose: 15.0 mg/kg/injection, schedule: Q04DX003 (ip), vehicle: other) 168 % of control and 177 % of control and 191 % of control. The T/C is 178 % of control (endpoint: mean survival time, dose: 25.0 mg/kg/injection, schedule: Q04DX003 (ip), vehicle: water); 169 % of control (endpoint: mean survival time, dose: 25.0 mg/kg/injection, schedule: Q08DX002 (ip), vehicle: water); 178 % of control and 190 % of control and 191 % of control (endpoint: mean survival time, dose: 30.0 mg/kg/injection, schedule: Q04DX003 (ip), vehicle: other); 165 % of control (endpoint: mean survival time, dose: 50.0 mg/kg/injection, schedule: Q08DX002 (ip), vehicle: water); 155 % of control and 196 % of control and 203 % of control (endpoint: mean survival time, dose: 60.0 mg/kg/injection, schedule: Q04DX003 (ip), vehicle: other); 124 % of control (endpoint: mean survival time, dose: 100.0 mg/kg/injection, schedule: Q01DX001 (oral), vehicle: water). Further, the T/C by setting is: (endpoint: mean survival time, dose: 100.0 mg/kg/injection, schedule: Q01DX001 (sc), vehicle: water) 96 % of control; (endpoint: mean survival time, dose: 100.0 mg/kg/injection, schedule: Q04DX003 (ip), vehicle: water) 109 % of control; (endpoint: mean survival time, dose: 100.0 mg/kg/injection, schedule: Q08DX002 (ip), vehicle: water) 158 % of control; (endpoint: mean survival time, dose: 200.0 mg/kg/injection, schedule: Q01DX001 (ip), vehicle: water) 118 % of control; (endpoint: mean survival time, dose: 200.0 mg/kg/injection, schedule: Q01DX001 (oral), vehicle: water) 121 % of control; (endpoint: mean survival time, dose: 400.0 mg/kg/injection, schedule: Q01DX001 (ip), vehicle: water) 92 % of control.

With `O=C(O)C1CC[N-]CC1.O=C(O)C1CC[N-]CC1.[Cl][Pt+2][Cl]`, the T/C (endpoint: mean survival time, dose: 50.0 mg/kg/injection, schedule: Q01DX001 (ip), vehicle: saline with Tween-80) was 110 % of control; the T/C under setting [1] was 107 % of control; the T/C (endpoint: mean survival time, dose: 200.0 mg/kg/injection, schedule: Q01DX001 (ip), vehicle: saline with Tween-80) is 110 % of control; the T/C (endpoint: mean survival time, dose: 200.0 mg/kg/injection, schedule: Q01DX009 (ip), vehicle: saline with Tween-80) is 97 % of control.

On to `CC(=O)OCCN1CCN(CCCN2c3ccccc3Sc3ccc(C(F)(F)F)cc32)CC1`, for which the T/C runs as follows: (endpoint: mean survival time, dose: 2.6 mg/kg/injection, schedule: Q03HX024 (ip), vehicle: saline) 108 % of control; (endpoint: mean survival time, dose: 4.0 mg/kg/injection, schedule: Q03HX024 (ip), vehicle: saline) 104 % of control; (endpoint: mean survival time, dose: 6.0 mg/kg/injection, schedule: Q03HX024 (ip), vehicle: saline) 121 % of control; (endpoint: mean survival time, dose: 12.5 mg/kg/injection, schedule: Q01DX001 (ip), vehicle: saline) 118 % of control and 105 % of control; (endpoint: mean survival time, dose: 12.5 mg/kg/injection, schedule: Q01DX009 (ip), vehicle: saline) 100 % of control; (endpoint: mean survival time, dose: 25.0 mg/kg/injection, schedule: Q01DX001 (ip), vehicle: saline) 117 % of control and 118 % of control. For the same compound, the T/C runs as follows: (endpoint: mean survival time, dose: 25.0 mg/kg/injection, schedule: Q01DX009 (ip), vehicle: saline) 95 % of control; (endpoint: mean survival time, dose: 50.0 mg/kg/injection, schedule: Q01DX001 (ip), vehicle: saline) 114 % of control; (endpoint: mean survival time, dose: 50.0 mg/kg/injection, schedule: Q01DX009 (ip), vehicle: saline) 89 % of control; under setting [3], 109 % of control.

With `Cc1cc(NCCN(C(C)C)C(C)C)nc(/N=C(\N)Nc2ccc(Cl)c(C(F)(F)F)c2)n1`, the T/C is, setting by setting: (endpoint: mean survival time, dose: 1.25 mg/kg/injection, schedule: Q01DX009 (ip), vehicle: Klucel (hydroxypropylcellulose) (HPC)) 98 % of control; (endpoint: mean survival time, dose: 2.5 mg/kg/injection, schedule: Q01DX009 (ip), vehicle: Klucel (hydroxypropylcellulose) (HPC)) 103 % of control; (endpoint: mean survival time, dose: 5.0 mg/kg/injection, schedule: Q01DX009 (ip), vehicle: Klucel (hydroxypropylcellulose) (HPC)) 105 % of control; (endpoint: mean survival time, dose: 10.0 mg/kg/injection, schedule: Q01DX009 (ip), vehicle: Klucel (hydroxypropylcellulose) (HPC)) 101 % of control; (endpoint: mean survival time, dose: 20.0 mg/kg/injection, schedule: Q01DX009 (ip), vehicle: Klucel (hydroxypropylcellulose) (HPC)) 100 % of control; (endpoint: mean survival time, dose: 40.0 mg/kg/injection, schedule: Q01DX009 (ip), vehicle: Klucel (hydroxypropylcellulose) (HPC)) 88 % of control.

Take `NC(=O)c1csc(COCCO)n1`: the T/C is, setting by setting: (endpoint: median survival time, dose: 40.63 mg/kg/injection, schedule: Q01DX005 (ip), vehicle: water) 102 % of control; (endpoint: median survival time, dose: 81.25 mg/kg/injection, schedule: Q01DX005 (ip), vehicle: water) 99 % of control; (endpoint: median survival time, dose: 162.5 mg/kg/injection, schedule: Q01DX005 (ip), vehicle: water) 103 % of control; (endpoint: median survival time, dose: 325.0 mg/kg/injection, schedule: Q01DX005 (ip), vehicle: water) 96 % of control.

On to `OC(CI)C1OCOC2COCOC21` (centres undefined), for which the T/C by setting is: (endpoint: mean survival time, dose: 100.0 mg/kg/injection, schedule: Q04DX003 (ip), vehicle: Klucel (hydroxypropylcellulose) (HPC)) 102 % of control; (endpoint: mean survival time, dose: 200.0 mg/kg/injection, schedule: Q04DX003 (ip), vehicle: Klucel (hydroxypropylcellulose) (HPC)) 94 % of control; (endpoint: mean survival time, dose: 400.0 mg/kg/injection, schedule: Q04DX003 (ip), vehicle: Klucel (hydroxypropylcellulose) (HPC)) 97 % of control.

As to `CC(C)c1ccc2cc(C(C)C)ccc2c1`, the T/C is 86 % of control under setting [1]; 92 % of control under setting [2]; 92 % of control (endpoint: mean survival time, dose: 400.0 mg/kg/injection, schedule: Q04DX003 (ip), vehicle: saline with Tween-80).
